Test [1] concerns Bacillus amyloliquefaciens. Kind of test: Antibacterial activity against Bacillus amyloliquefaciens GDMCC 60233 assessed as reduction in microbial growth after 12 hrs by microbroth dilution method. It counts as functional. In general terms: Broth dilution looks for growth in wells or tubes with falling amounts of substance.
Test [2] deals with T1, Receptor-type tyrosine-protein phosphatase C (Homo sapiens, UniProt P08575).
T1 sequence (P08575 whole entry): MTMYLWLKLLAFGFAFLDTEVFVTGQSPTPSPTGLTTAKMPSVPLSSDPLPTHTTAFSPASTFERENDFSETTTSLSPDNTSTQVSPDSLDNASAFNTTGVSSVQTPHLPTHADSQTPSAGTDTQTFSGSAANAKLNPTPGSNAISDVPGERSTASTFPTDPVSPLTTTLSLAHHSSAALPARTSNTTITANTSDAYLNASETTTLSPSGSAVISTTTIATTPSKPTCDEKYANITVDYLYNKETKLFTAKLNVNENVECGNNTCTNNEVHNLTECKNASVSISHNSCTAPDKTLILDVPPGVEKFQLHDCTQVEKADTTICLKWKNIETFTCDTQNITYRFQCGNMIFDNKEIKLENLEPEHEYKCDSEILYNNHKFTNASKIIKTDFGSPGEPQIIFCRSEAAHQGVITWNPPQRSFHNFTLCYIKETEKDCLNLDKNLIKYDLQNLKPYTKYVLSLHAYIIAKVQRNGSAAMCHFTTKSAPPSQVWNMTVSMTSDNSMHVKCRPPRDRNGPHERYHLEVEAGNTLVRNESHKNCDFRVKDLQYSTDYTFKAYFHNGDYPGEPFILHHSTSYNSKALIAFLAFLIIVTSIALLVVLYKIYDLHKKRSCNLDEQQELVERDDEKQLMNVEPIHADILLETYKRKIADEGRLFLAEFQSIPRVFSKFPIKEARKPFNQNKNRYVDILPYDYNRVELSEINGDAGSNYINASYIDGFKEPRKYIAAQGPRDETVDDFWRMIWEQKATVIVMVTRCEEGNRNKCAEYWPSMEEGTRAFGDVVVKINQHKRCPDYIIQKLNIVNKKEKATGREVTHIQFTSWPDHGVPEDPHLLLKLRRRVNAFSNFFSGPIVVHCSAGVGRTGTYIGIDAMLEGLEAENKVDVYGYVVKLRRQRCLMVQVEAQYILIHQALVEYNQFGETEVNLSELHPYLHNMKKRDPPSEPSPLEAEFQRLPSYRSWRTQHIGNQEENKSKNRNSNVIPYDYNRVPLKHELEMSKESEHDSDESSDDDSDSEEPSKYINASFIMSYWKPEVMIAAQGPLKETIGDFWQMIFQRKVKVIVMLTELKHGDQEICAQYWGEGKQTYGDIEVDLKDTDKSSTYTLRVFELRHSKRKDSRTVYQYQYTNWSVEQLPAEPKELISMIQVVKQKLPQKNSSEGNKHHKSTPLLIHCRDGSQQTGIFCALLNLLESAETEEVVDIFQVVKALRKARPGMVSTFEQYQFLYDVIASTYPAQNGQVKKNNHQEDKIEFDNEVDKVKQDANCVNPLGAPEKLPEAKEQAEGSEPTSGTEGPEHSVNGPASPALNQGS
Kind of test: Inhibition of human CD45.

Test [3] concerns the target T2, Tyrosine-protein phosphatase non-receptor type 2 (Homo sapiens, UniProt P17706).
T2 sequence (P17706 whole entry): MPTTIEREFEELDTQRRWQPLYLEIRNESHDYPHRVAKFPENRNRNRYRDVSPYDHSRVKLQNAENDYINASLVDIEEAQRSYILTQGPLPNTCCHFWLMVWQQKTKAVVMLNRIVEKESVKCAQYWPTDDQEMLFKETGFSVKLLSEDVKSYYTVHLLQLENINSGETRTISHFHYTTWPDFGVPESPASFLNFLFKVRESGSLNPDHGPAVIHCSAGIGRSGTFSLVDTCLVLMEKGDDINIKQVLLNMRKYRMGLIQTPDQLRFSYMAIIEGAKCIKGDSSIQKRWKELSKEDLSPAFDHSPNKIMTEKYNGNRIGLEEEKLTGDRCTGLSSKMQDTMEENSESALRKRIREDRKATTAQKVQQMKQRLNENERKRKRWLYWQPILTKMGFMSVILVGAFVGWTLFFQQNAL
Kind of test: Inhibition of human TCPTP.

The target of test [4] is Receptor-type tyrosine-protein phosphatase F (Homo sapiens, UniProt P10586). In words: Inhibition of human LAR.
Chain of Receptor-type tyrosine-protein phosphatase F (P10586 whole entry): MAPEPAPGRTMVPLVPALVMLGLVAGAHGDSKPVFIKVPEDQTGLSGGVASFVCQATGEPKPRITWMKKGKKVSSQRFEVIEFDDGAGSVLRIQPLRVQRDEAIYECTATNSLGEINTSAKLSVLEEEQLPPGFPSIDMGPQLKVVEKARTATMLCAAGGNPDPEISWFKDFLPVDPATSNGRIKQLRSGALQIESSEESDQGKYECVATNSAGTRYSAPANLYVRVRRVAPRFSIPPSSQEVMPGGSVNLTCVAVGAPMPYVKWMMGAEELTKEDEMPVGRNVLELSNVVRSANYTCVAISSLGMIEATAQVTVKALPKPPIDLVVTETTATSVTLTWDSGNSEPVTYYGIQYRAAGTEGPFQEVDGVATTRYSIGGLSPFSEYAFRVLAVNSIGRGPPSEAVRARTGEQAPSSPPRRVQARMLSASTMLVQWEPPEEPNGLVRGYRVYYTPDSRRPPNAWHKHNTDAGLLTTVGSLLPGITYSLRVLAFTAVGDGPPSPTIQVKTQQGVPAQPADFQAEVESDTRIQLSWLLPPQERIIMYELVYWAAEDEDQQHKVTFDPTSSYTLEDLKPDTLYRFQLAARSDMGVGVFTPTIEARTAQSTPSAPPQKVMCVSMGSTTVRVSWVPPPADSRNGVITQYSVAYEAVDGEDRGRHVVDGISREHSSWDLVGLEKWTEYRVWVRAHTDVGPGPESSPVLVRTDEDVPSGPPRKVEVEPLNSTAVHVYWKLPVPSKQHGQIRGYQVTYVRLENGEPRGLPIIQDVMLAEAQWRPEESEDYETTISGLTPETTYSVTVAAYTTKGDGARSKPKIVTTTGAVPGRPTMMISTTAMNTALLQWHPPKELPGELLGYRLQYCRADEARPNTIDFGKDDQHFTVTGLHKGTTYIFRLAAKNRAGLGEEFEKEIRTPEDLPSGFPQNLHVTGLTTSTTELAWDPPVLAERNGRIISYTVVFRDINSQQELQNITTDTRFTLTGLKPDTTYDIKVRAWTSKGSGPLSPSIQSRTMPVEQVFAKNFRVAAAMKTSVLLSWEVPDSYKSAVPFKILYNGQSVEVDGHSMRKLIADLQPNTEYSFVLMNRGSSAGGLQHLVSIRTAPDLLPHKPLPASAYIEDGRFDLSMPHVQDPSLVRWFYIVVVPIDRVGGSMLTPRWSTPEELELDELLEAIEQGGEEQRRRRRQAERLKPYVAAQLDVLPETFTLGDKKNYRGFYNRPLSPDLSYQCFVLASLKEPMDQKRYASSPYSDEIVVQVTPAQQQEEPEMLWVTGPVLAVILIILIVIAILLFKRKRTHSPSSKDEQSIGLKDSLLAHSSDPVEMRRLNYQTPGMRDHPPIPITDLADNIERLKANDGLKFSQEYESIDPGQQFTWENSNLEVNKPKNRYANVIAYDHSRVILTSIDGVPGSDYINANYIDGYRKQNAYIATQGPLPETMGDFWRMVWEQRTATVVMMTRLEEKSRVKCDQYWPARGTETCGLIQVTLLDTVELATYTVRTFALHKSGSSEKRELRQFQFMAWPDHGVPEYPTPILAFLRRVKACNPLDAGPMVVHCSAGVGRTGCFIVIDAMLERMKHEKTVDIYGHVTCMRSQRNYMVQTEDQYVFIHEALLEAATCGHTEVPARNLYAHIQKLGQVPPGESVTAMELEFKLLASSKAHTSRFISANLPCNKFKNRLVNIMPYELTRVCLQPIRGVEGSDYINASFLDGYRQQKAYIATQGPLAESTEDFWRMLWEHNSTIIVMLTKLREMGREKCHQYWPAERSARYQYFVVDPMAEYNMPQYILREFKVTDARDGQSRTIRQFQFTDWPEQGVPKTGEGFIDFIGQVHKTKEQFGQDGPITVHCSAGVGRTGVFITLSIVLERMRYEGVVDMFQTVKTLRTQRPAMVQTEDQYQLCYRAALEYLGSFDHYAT
The target of test [5] is T3, Tyrosine-protein phosphatase non-receptor type 1 (Homo sapiens, UniProt P18031).
T3 sequence (P18031 whole entry): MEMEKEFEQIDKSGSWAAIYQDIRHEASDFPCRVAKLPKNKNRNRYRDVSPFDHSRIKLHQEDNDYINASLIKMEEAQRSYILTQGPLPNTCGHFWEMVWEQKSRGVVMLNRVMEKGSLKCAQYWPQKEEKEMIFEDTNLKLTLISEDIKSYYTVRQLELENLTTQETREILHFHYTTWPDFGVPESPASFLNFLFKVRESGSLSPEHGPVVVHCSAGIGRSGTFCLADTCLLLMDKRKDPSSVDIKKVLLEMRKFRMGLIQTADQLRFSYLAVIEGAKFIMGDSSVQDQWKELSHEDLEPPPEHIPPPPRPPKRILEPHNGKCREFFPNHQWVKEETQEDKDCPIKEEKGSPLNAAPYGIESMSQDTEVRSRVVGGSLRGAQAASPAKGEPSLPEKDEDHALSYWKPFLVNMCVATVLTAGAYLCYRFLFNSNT
Kind of test: Inhibition of human PTP1B.

For test [6], the system named is Staphylococcus aureus. Kind of test: Antibacterial activity against Staphylococcus aureus ATCC 6538 assessed as reduction in microbial growth after 12 hrs by microbroth dilution method. It counts as functional.
In test [7] the test system is Staphylococcus aureus. In words: Antibacterial activity against methicillin-resistant Staphylococcus aureus assessed as reduction in microbial growth after 12 hrs by microbroth dilution method. It counts as functional.
The test system of another test is Bacillus subtilis. In words: Antibacterial activity against Bacillus subtilis BS01 assessed as reduction in microbial growth after 12 hrs by microbroth dilution method. It counts as functional.
Another test deals with Streptococcus agalactiae. Kind of test: Antibacterial activity against Streptococcus agalactiae ATCC 13813 assessed as reduction in microbial growth after 12 hrs by microbroth dilution method. It counts as functional.
The next test relates to NCI-H1975. Kind of test: Cytotoxicity against human NCI-H1975 cells assessed as reduction in cell viability after 24 hrs by CCK8 assay. It counts as functional, cell-based. The conditions noted are these: NCI-H1975, 24 h. For orientation: Formazan colour is commonly taken as a measure of viable cells.
In test [8] the test system is Escherichia coli. Kind of test: microbe, parasite or virus in culture. It counts as functional. Conditions: ATCC 25922, time 12 hrs.
Description: Antibacterial activity against Escherichia coli ATCC 25922 assessed as reduction in microbial growth after 12 hrs by microbroth dilution method
Test [9] has as its target Tyrosine-protein phosphatase non-receptor type 6 (Homo sapiens, UniProt P29350). In words: Inhibition of human SHP1.
The subject of test [10] is Escherichia coli. In words: Antibacterial activity against Escherichia coli assessed as reduction in microbial growth after 12 hrs by broth microdilution method. It counts as functional.
Test [11] has as its system Staphylococcus aureus. Kind of test: Antibacterial activity against methicillin-resistant Staphylococcus aureus assessed as reduction in microbial growth after 12 hrs by broth microdilution method. It counts as functional.

In ChEMBL document CHEMBL5120959, “Pyrrospirones K-Q, Decahydrofluorene-Class Alkaloids from the Marine-Derived Fungus Penicillium sp. SCSIO 41512” (J Nat Prod, 2022) one finds MIC and IC50 data, which are given here for nine molecules.

SMILES strings stand for the structures. In brackets after ≈: the same amount, converted by molar mass.

Chain of Tyrosine-protein phosphatase non-receptor type 6 (P29350 whole entry): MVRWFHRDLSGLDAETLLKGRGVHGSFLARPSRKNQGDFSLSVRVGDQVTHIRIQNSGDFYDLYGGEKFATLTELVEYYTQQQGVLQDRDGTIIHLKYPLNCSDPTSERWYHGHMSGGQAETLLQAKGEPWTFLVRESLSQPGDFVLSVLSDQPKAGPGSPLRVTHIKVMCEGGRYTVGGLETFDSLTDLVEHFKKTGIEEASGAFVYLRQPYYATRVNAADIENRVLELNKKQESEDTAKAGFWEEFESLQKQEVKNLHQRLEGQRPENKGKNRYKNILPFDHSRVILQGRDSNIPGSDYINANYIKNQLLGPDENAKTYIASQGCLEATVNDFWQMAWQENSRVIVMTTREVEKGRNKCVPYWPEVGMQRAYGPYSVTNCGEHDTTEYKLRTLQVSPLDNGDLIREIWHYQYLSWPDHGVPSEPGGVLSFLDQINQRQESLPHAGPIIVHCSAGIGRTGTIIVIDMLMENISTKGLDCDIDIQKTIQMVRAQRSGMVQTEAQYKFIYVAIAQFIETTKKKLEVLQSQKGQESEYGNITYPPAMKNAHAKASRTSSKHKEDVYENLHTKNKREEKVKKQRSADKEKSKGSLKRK

As for `C=C[C@@]1(C)C=C(C)[C@@H]2[C@@H]3[C@H](Oc4ccc(cc4)C[C@@H]4C(=O)NC(=O)[C@@H]4C(=O)[C@H]31)[C@@H]1[C@@H](C)C[C@@H](C)C[C@]12C`, the MIC turned out to be 50 mg/L in [1]; 100 mg/L with Staphylococcus aureus [6]; 50 mg/L with Staphylococcus aureus [7]; 20 mg/L in the test with Bacillus subtilis; 100 mg/L in the test on Streptococcus agalactiae; 50 mg/L (≈ 99.7 µM) in the test with Escherichia coli [8]. Moreover, the IC50 (commonly the point on the concentration scale where inhibition reaches its midpoint) is 8.1 µM in [2]; 14 µM in [3]; greater than 200 µM in test [4]; 25 µM in [5]; 75 µM with NCI-H1975.
As to `CO[C@@]12Cc3ccc(cc3)O[C@H]3[C@@H]4[C@H]5C(=O)[C@](C[C@H](O)OO[C@@]5(C)[C@H]5O[C@@]5(C)[C@H]4[C@]4(C)C[C@H](C)C[C@H](C)[C@@H]34)(C1)C(=O)N2`, the MIC in [1] turned out to be 50 mg/L; in the test with Staphylococcus aureus [6], 50 mg/L; in the test on Staphylococcus aureus [7], 50 mg/L; in the test on Bacillus subtilis, 50 mg/L; with Streptococcus agalactiae it was 50 mg/L; with Escherichia coli [8] it was 50 mg/L (≈ 86 µM). For the same molecule, the IC50 in [2] is greater than 200 µM; in [3], greater than 200 µM; in test [9] it was greater than 200 µM; in [4], greater than 200 µM; in test [5], greater than 200 µM; in the test with NCI-H1975, greater than 80 µM.
For `CO[C@@H]1C2Cc3ccc(cc3)O[C@H]3[C@@H]4[C@H]5C(=O)[C@@]1(C[C@H](O)[C@@]5(C)C=C(C)[C@H]4[C@]1(C)C[C@H](C)C[C@H](C)[C@@H]31)C(=O)N2`, the MIC in [1] amounted to 100 mg/L; in the test on Staphylococcus aureus [6], 100 mg/L; with Staphylococcus aureus [7], 100 mg/L; with Bacillus subtilis it was 50 mg/L; with Streptococcus agalactiae, 100 mg/L; with Escherichia coli [10] it was 2 mg/L. The MIC against Escherichia coli [8] turned out to be 50 mg/L (≈ 93.7 µM); in the test with Staphylococcus aureus [11] it was 2 mg/L. Besides, the IC50 in test [2] was greater than 200 µM; in test [3] it was greater than 200 µM; in [9], 80 µM; in test [4], greater than 200 µM; in test [5] it was 66 µM.
With `C=C[C@@]1(C)C=C(C)[C@@H]2[C@@H]3[C@@H](Oc4ccc(cc4)C[C@@]4(O)C/C(=C(/O)[C@H]31)C(=O)N4)[C@@H]1[C@@H](C)C[C@@H](C)C[C@]12C`, the MIC in [1] was determined as 20 mg/L; in the test on Staphylococcus aureus [6], 20 mg/L; in the test on Staphylococcus aureus [7], 20 mg/L; with Bacillus subtilis, 10 mg/L; in the test on Streptococcus agalactiae it was 20 mg/L; against Escherichia coli [8], 20 mg/L (≈ 39.7 µM). Moreover, the IC50 in test [2] was 100 µM; in test [3], 92 µM; in [9], 100 µM; in test [4], greater than 200 µM; in [5] it was 89 µM; in the test with NCI-H1975, 72 µM.
For the molecule `C[C@@H]1C[C@H](C)[C@H]2[C@H]3Oc4ccc(cc4)C[C@]4(O)C[C@]5(C[C@H](O)OO[C@@]6(C)[C@H]7O[C@@]7(C)[C@H]([C@H]3[C@H]6C5=O)[C@]2(C)C1)C(=O)N4`, the MIC in test [1] was 50 mg/L; in the test with Staphylococcus aureus [6], 50 mg/L; in the test on Staphylococcus aureus [7], 50 mg/L; with Bacillus subtilis, 50 mg/L; in the test on Streptococcus agalactiae, 50 mg/L; against Escherichia coli [8], 50 mg/L (≈ 88.1 µM). The IC50 in test [2] is greater than 200 µM; in test [3] it was greater than 200 µM; in test [9] it was greater than 200 µM; in test [4] it was greater than 200 µM; in test [5] it was greater than 200 µM; in the test on NCI-H1975, greater than 80 µM.
With `CO[C@@H]1/C2=C3\O[C@@H](C)[C@@]4(C)C=C(C)[C@@H]5[C@H]([C@H](Oc6ccc(cc6)C[C@]1(O)NC2=O)[C@@H]1[C@@H](C)C[C@@H](C)C[C@]15C)[C@@H]34`, the IC50 in [2] was 190 µM; in [3], 79 µM; in test [9], 63 µM; in test [4], greater than 200 µM; in test [5], 39 µM; in the test on NCI-H1975 it was 55 µM.
Consider `CC(=O)[C@@H]1[C@@H]2[C@H](Oc3ccc(cc3)C[C@]3(O)C[C@]4(C[C@@H](O)[C@](C)(C=O)[C@@H]2C4=O)C(=O)N3)[C@@H]2[C@@H](C)C[C@@H](C)C[C@]21C`, for which the MIC is 100 mg/L in [1]; greater than 100 mg/L with Staphylococcus aureus [6]; greater than 100 mg/L in the test with Staphylococcus aureus [7]; 100 mg/L in the test on Bacillus subtilis; greater than 100 mg/L in the test with Streptococcus agalactiae; 100 mg/L (≈ 181 µM) against Escherichia coli [8]. The IC50 was greater than 200 µM in test [2]; greater than 200 µM in test [3]; greater than 200 µM in test [9]; greater than 200 µM in test [4]; greater than 200 µM in test [5]; greater than 80 µM with NCI-H1975.
Regarding `CO[C@@]12Cc3ccc(cc3)O[C@H]3[C@H]([C@H]4C(=O)[C@](C[C@@H](O)[C@]4(C)C=O)(C1)C(=O)N2)[C@@H](C(C)=O)[C@]1(C)C[C@H](C)C[C@H](C)[C@@H]31`, the MIC was 100 mg/L in test [1]; greater than 100 mg/L with Staphylococcus aureus [6]; greater than 100 mg/L with Staphylococcus aureus [7]; 100 mg/L in the test with Bacillus subtilis; greater than 100 mg/L with Streptococcus agalactiae; 100 mg/L (≈ 177 µM) in the test on Escherichia coli [8]. Also, the IC50 was greater than 200 µM in [2]; 130 µM in test [3]; 100 µM in [9]; greater than 200 µM in test [4]; 58 µM in test [5].
Regarding `CO[C@@H]1C2Cc3ccc(cc3)O[C@H]3[C@@H]4[C@H]5C(=O)[C@@]1(C[C@@H](O)[C@@]5(C)C=C(C)[C@H]4[C@]1(C)C[C@H](C)C[C@H](C)[C@@H]31)C(=O)N2`, the MIC in test [1] is 20 mg/L; in the test with Staphylococcus aureus [6], 20 mg/L; in the test on Staphylococcus aureus [7], 20 mg/L; with Bacillus subtilis it was 10 mg/L; in the test with Streptococcus agalactiae it was 20 mg/L; with Escherichia coli [10] it was 2 mg/L. For the same molecule, the MIC with Escherichia coli [8] was 5 mg/L (≈ 9.37 µM); in the test with Staphylococcus aureus [11], 2 mg/L. Also, the 50% inhibitory concentration (IC50) in test [2] was greater than 200 µM; in [3] it was greater than 200 µM; in test [9] it was 100 µM; in [4], greater than 200 µM; in test [5], 100 µM.
